# In publication PMC8041284, “Tunable Methacrylamides for Covalent Ligand Directed Release Chemistry” (Journal of the American Chemical Society, 2021):
# Biological target: BTK (Homo sapiens, UniProt Q06187)
# Test: biochemical
# Details: read-out: BTK inhibition (%)
# Chain of BTK (Q06187 402-655 limits assumed): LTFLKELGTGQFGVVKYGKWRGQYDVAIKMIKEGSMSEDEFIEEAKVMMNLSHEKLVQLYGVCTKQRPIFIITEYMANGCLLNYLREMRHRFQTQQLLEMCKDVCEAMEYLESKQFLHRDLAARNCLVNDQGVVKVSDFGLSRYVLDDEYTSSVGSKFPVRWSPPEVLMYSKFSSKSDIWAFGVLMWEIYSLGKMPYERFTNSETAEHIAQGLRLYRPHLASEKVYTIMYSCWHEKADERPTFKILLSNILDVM
row,Compound,inhibition at 10 µM [%]
1,COC1=C[C@@]23CCN(C)[C@@H](Cc4ccc(OC)c(O)c42)C3=CC1=O [PCM-0216320],3.1
2,O=C1C([C@@H]2O[C@H](CO)[C@@H](O)[C@H](O)[C@H]2O)=C(O)/C(=C(O)/C=C/c2ccc(O)cc2)C(=O)C1(O)[C@@H]1O[C@H](CO)[C@@H](O)[C@H](O)[C@H]1O (some centres unmarked) [PCM-0216360],23.9
3,COC(=O)C[C@](O)(CCC(C)(C)O)C(=O)O[C@@H]1C(OC)=C[C@]23CCCN2CCc2cc4c(cc2[C@H]13)OCO4 [PCM-0216362],-7.7

# Same assay, conditions: read-out: BTK inhibition (%), 0.75 uM BTK, […] probe 3l, 15 min preincubation
row,Compound,inhibition at 10 µM [%]
1,COc1ccc(/C=C/c2cc(OC)cc(=O)o2)cc1 [PCM-0216316],-2.3
2,C[C@@H]1C(=O)O[C@H](C)[C@H]1C[C@@H](O)[C@](C)(O)[C@H]1CC[C@@]2(O)C3=CC(=O)[C@@H]4C[C@@H](O)[C@@H](O)C[C@]4(C)[C@H]3CC[C@]12C [PCM-0216317],-5.4
3,O=C(O)CC(O)(CC(=O)OCc1ccc(O[C@@H]2O[C@H](CO)[C@@H](O)[C@H](O)[C@H]2O)cc1)C(=O)OCc1ccc(O[C@@H]2O[C@H](CO)[C@@H](O)[C@H](O)[C@H]2O)cc1 (some centres unmarked) [PCM-0216319],-28.6
4,CC12CC(c3ccoc3)OC13CC(OC3=O)C1C3CC(CC12)OC3=O (centres unmarked) [PCM-0216321],2.3
5,COc1cc(-c2oc3cc(O)cc(O)c3c(=O)c2O[C@@H]2O[C@H](CO[C@@H]3O[C@@H](C)[C@H](O)[C@@H](O)[C@H]3O)[C@@H](O)[C@H](O)[C@H]2O)ccc1O [PCM-0216322],8.5
6,Oc1ccc2c(c1)OC[C@]1(O)Cc3cc(O)c(O)cc3[C@H]21 [PCM-0216323],0
7,COC(=O)C1=CO[C@@H](O[C@@H]2O[C@H](CO)[C@@H](O)[C@H](O)[C@H]2O)[C@@H]2C(CO)=C[C@H](O)[C@H]12 [PCM-0216324],-7.7
8,COc1cc2c(cc1OC)-c1c(C)c3ccc(OC)c(OC)c3c[n+]1CC2 [PCM-0216326],0
9,CCCCCC/C=C\CCCCCCCc1cccc(O)c1C(=O)O [PCM-0216327],84.2
10,CC1OC2OC3C(OCC(O)C3O)OC(=O)C34CCC(C)(C)CC3C3=CCC5C6(C)CC(O)C(OC7OC(CO)C(O)C(O)C7OC7OCC(OC(=O)CC(C)(O)CC(=O)OC1C(OC1OCC(O)C(O)C1O)C2O)C(O)C7O)C(C)(CO)C6CCC5(C)C3(C)CC4O (centres unmarked) [PCM-0216328],-1.5
11,CCCCCCC[C@H](O)CC(=O)CCc1ccc(O)c(OC)c1 [PCM-0216329],-41.7
12,C=C1C[C@@]23CC[C@H]4[C@@](C)(CCC[C@@]4(C)C(=O)O)[C@@H]2CC[C@@H]1C3 [PCM-0216330],-3.9
13,COc1cc(/C=C/C(=O)O[C@H]2[C@H](O)[C@@H](CO)O[C@@]2(CO)O[C@H]2O[C@H](CO)[C@@H](O)[C@H](O)[C@H]2O)ccc1O [PCM-0216331],-3.1
14,C/C=C(/C)C(=O)O[C@H]1c2cc(OC)c(OC)c(OC)c2-c2c(cc3c(c2OC)OCO3)C[C@H](C)[C@]1(C)O [PCM-0216333],-25.5
15,CCCCCCCCCCCCCc1cccc(O)c1C(=O)O [PCM-0216334],34
16,OC[C@H]1O[C@@](CO)(OC[C@@]2(OC[C@@]3(OC[C@@]4(O[C@H]5O[C@H](CO)[C@@H](O)[C@H](O)[C@H]5O)O[C@H](CO)[C@@H](O)[C@@H]4O)O[C@H](CO)[C@@H](O)[C@@H]3O)O[C@H](CO)[C@@H](O)[C@@H]2O)[C@@H](O)[C@@H]1O [PCM-0216335],6.9
17,O=C(O)CC(O)C(=O)O (centres unmarked) [PCM-0216336],-11.6
18,C[C@@H]1OC(O)[C@@H](O)[C@H](O)[C@@H]1O (some centres unmarked) [PCM-0216337],-23.2
19,O=C(O)[C@H](O)c1ccccc1 [PCM-0216338],-10
20,C=C(C)C1CC=C(/C=N/O)CC1 (centres unmarked) [PCM-0216339],-2.3
21,C[C@@H]1O[C@@H](O[C@H]2[C@H](O)[C@@H](O)[C@H](OC[C@H]3O[C@@H](OC(=O)[C@]45CCC(C)(C)C[C@H]4C4=CC[C@@H]6[C@@]7(C)CC[C@H](O[C@@H]8OC[C@H](O)[C@H](O)[C@H]8O)[C@@](C)(CO)[C@@H]7CC[C@@]6(C)[C@]4(C)CC5)[C@H](O)[C@@H](O)[C@@H]3O)O[C@@H]2CO)[C@H](O)[C@H](O)[C@H]1O [PCM-0216340],-10.2
22,COC(=O)C[C@](O)(CCCC(C)(C)O)C(=O)O[C@@H]1C(OC)=C[C@]23CCCN2CCc2cc4c(cc2[C@H]13)OCO4 [PCM-0216341],4.6
23,C[C@@H]1O[C@@H](O[C@H]2[C@H](O[C@H]3CC[C@@]4(C)[C@@H](CC[C@]5(C)[C@@H]4CC=C4[C@@H]6CC(C)(C)CC[C@]6(C(=O)O[C@@H]6O[C@H](CO[C@@H]7O[C@H](CO)[C@@H](O)[C@H](O)[C@H]7O)[C@@H](O)[C@H](O)[C@H]6O)CC[C@]45C)[C@]3(C)CO)OC[C@H](O)[C@@H]2O)[C@H](O)[C@H](O)[C@H]1O [PCM-0216342],-25.5
24,Cc1cccc2c3c(ccc12)C1=C(C(=O)C3=O)[C@@H](C)CO1 [PCM-0216343],22.4
25,CC(C)=CCC[C@@](C)(O)[C@H]1CC[C@]2(C)[C@@H]1[C@H](O)C[C@@H]1[C@@]3(C)CC[C@H](O[C@@H]4O[C@H](CO)[C@@H](O)[C@H](O)[C@H]4O)C(C)(C)[C@@H]3CC[C@]12C [PCM-0216344],-23.2

row,Compound,inhibition at 10 µM [%]
1,CC(C)=CCC[C@](C)(O)[C@H]1CC[C@]2(C)[C@@H]1[C@H](O)C[C@@H]1[C@@]3(C)CC[C@H](O[C@@H]4O[C@H](CO)[C@@H](O)[C@H](O)[C@H]4O)C(C)(C)[C@@H]3CC[C@]12C [PCM-0216344],7.7
2,COC(=O)C1=CO[C@@H](O[C@@H]2O[C@H](CO)[C@@H](O)[C@H](O)[C@H]2O)[C@@H]2[C@@H](C)CC(=O)[C@]12O [PCM-0216345],-3.1
3,COc1c2c(cc3oc(CO[C@@H]4O[C@H](CO)[C@@H](O)[C@H](O)[C@H]4O)cc(=O)c13)O[C@H](C(C)(C)O)C2 [PCM-0216346],7.7
4,CC(C)=CCC/C(C)=C/Cc1c(O)c(CC=C(C)C)c2c(c1O)C(=O)C1=C[C@@H]3C[C@H]4C(C)(C)O[C@@](C/C=C(/C)C(=O)O)(C3=O)[C@@]14O2 [PCM-0216347],100
5,CC(=O)O[C@H]1CC/C(C)=C/CC/C(C)=C/C[C@]2(C(C)C)CC[C@@]1(C)O2 [PCM-0216348],-10
6,C[C@]12C[C@@H](O)[C@@H]3C[C@@]1(O[C@@H]1O[C@H](CO)[C@@H](O)[C@H](O)[C@H]1O)[C@]3(COC(=O)c1ccccc1)C(=O)O2 [PCM-0216349],-12.4
7,CC(C)c1ccc2c(c1O)CC[C@H]1C3=C(CC[C@]21C)C(=O)OC3 [PCM-0216350],0.8
8,COc1cc2c(cc1O)C[C@H]1c3c(cc(O)c(OC)c3-2)CCN1C [PCM-0216351],6.9
9,CC(=O)OCC1=C[C@@H]2OC(=O)C3=CO[C@@H](O[C@@H]4O[C@H](CO)[C@@H](O)[C@H](O)[C@H]4O)[C@H]1[C@@H]32 [PCM-0216352],10.8
10,COc1cc(-c2coc3cc4c(c(OC)c3c2=O)OCO4)cc(OC)c1OC [PCM-0216353],-9.3
11,O=C(/C=C/c1ccc(O)c(O)c1/C=C/c1ccc(O)c(O)c1)O[C@H](Cc1ccc(O)c(O)c1)C(=O)O [PCM-0216354],30.9
12,C=CC/C(=N\OS(=O)(=O)O)S[C@@H]1O[C@H](CO)[C@@H](O)[C@H](O)[C@H]1O [PCM-0216356],3.9
13,O=C(O[C@@H]1Cc2c(O)cc(O)cc2O[C@H]1c1cc(O)c(O)c(O)c1)c1cc(O)c(O)c(O)c1 [PCM-0216357],40.9
14,O=c1cc(-c2ccc(O[C@@H]3O[C@H](CO)[C@@H](O)[C@H](O)[C@H]3O)cc2)oc2c([C@@H]3O[C@H](CO)[C@@H](O)[C@H](O)[C@H]3O)c(O)cc(O)c12 [PCM-0216358],-3.9
15,OC[C@H]1O[C@@](CO)(OC[C@@]2(OC[C@@]3(O[C@H]4O[C@H](CO)[C@@H](O)[C@H](O)[C@H]4O)O[C@H](CO)[C@@H](O)[C@@H]3O)O[C@H](CO)[C@@H](O)[C@@H]2O)[C@@H](O)[C@@H]1O [PCM-0216359],7.7
16,CC(O)[C@H](C)[C@H](N)C(=O)O (some centres unmarked) [PCM-0216361],-2.6
17,O=C(CCc1ccc(O)cc1)c1c(O)cc(O[C@@H]2O[C@H](CO)[C@@H](O)[C@H](O)[C@H]2O)cc1O [PCM-0216363],17.8
18,C=C1[C@H]2C[C@@]3([C@@H]1O)[C@@H](CC2=O)[C@]12[C@@H]4C[C@H]3[C@H]1N(CC)C[C@]4(C)CC[C@@H]2O [PCM-0216364],19.3
19,CC1=C(CC[C@@H](C)CO[C@@H]2O[C@H](CO)[C@@H](O)[C@H](O)[C@H]2O)O[C@H]2C[C@H]3[C@@H]4CC=C5C[C@@H](O[C@@H]6O[C@H](CO)[C@@H](O[C@@H]7O[C@@H](C)[C@H](O)[C@@H](O)[C@H]7O)[C@H](O)[C@H]6O[C@@H]6O[C@@H](C)[C@H](O)[C@@H](O)[C@H]6O)CC[C@]5(C)[C@H]4CC[C@]3(C)[C@@H]12 [PCM-0216365],-11.9
20,C[C@@H]1CC[C@@]2(OC1)O[C@H]1C[C@H]3[C@@H]4CC=C5C[C@@H](O[C@@H]6O[C@H](CO)[C@@H](O)[C@H](O)[C@H]6O)CC[C@]5(C)[C@H]4CC[C@]3(C)[C@H]1[C@@H]2C [PCM-0216366],-20.1
21,COc1cc(O)c(CC=C(C)C)c2c1C(=O)CC(c1ccc(O)cc1)O2 (centres unmarked) [PCM-0216367],8.5
22,C=C(C)[C@@H]1CCC2=CC(=O)C[C@@H](C)[C@]2(C)C1 [PCM-0216368],12.4
23,N#C/C=C1/C=C[C@@H](O)[C@H](O)[C@H]1O[C@@H]1O[C@H](CO)[C@@H](O)[C@H](O)[C@H]1O [PCM-0216369],-11.6
24,C[C@H]1O[C@@H](O[C@H]2CC[C@@]3(C)[C@@H](CC[C@]4(C)[C@@H]3C=CC3=C5CC(C)(C)CC[C@]5(CO)[C@@H](O)C[C@]34C)[C@]2(C)CO)[C@H](O[C@@H]2O[C@H](CO)[C@@H](O)[C@H](O)[C@H]2O)[C@@H](O[C@@H]2O[C@H](CO)[C@@H](O)[C@H](O)[C@H]2O)[C@H]1O [PCM-0216370],25.5
25,OC[C@H]1O[C@@H](Oc2cc(O)cc(/C=C/c3ccc(O[C@@H]4O[C@H](CO)[C@@H](O)[C@H](O)[C@H]4O)cc3O)c2)[C@H](O)[C@@H](O)[C@@H]1O [PCM-0216371],-5.4
